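96-well plates; 48 h exposure; 5 concentrations. Endpoints by linear interpolation between flanking doses. Not reached: highest tested concentration assigned. GI50 = concentration required for 50% inhibition of growth.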 Active and inactive are the calls of the source. Cut-off read from the data, not from the text of the source: active = GI50 up to about 1.1 µM and inactive = higher.
Key:
Assay in all cases: growth of human tumour cells (NCI), 48 h
ACHN = tested on: ACHN
A498 = tested on: A498
CAKI-1 = tested on: CAKI-1
Hs-578T = tested on: Hs-578T
SF-295 = tested on: SF-295
HT-29 = tested on: HT-29
HOP-92 = tested on: HOP-92
SF-268 = tested on: SF-268
HCT-15 = tested on: HCT-15
COLO 205 = tested on: COLO 205
LOX IMVI = tested on: LOX IMVI
HCT-116 = tested on: HCT-116
IGROV-1 = tested on: IGROV-1
NCI-H460 = tested on: NCI-H460
RPMI-8226 = tested on: RPMI-8226
SR = tested on: SR
Malme-3M = tested on: Malme-3M
SF-539 = tested on: SF-539
786-0 = tested on: 786-0
HL-60 = tested on: HL-60
OVCAR-3 = tested on: OVCAR-3
NCI-H23 = tested on: NCI-H23
UACC-257 = tested on: UACC-257
DU-145 = tested on: DU-145
SN12C = tested on: SN12C
UACC-62 = tested on: UACC-62
OVCAR-4 = tested on: OVCAR-4
KM12 = tested on: KM12
OVCAR-5 = tested on: OVCAR-5
HCC 2998 = tested on: HCC 2998
PC-3 = tested on: PC-3
NCI/ADR-RES = tested on: NCI/ADR-RES
MDA-N = tested on: MDA-N
SK-MEL-2 = tested on: SK-MEL-2
RXF 393 = tested on: RXF 393
K562 = tested on: K562
SNB-19 = tested on: SNB-19
UO-31 = tested on: UO-31
T47D = tested on: T47D
SK-OV-3 = tested on: SK-OV-3
EKVX = tested on: EKVX
M14 = tested on: M14
BT-549 = tested on: BT-549
OVCAR-8 = tested on: OVCAR-8
HOP-62 = tested on: HOP-62
U-251 = tested on: U-251
SK-MEL-28 = tested on: SK-MEL-28
MCF7 = tested on: MCF7
SK-MEL-5 = tested on: SK-MEL-5
CCRF-CEM = tested on: CCRF-CEM
NCI-H226 = tested on: NCI-H226
SW-620 = tested on: SW-620
MDA-MB-435 = tested on: MDA-MB-435
A549 = tested on: A549
MDA-MB-231 = tested on: MDA-MB-231
NCI-H522 = tested on: NCI-H522
SNB-75 = tested on: SNB-75
TK-10 = tested on: TK-10
MOLT-4 = tested on: MOLT-4

`O=C(N/N=C\c1cccc2ccccc12)Nc1ccc([N+](=O)[O-])cc1` was tested, and the GI50 (ACHN) was 11.6 µM (inactive), the GI50 (A498) was 2.66 µM (inactive) and the GI50 (CAKI-1) was 42.1 µM (inactive). For the same molecule, the GI50 (Hs-578T) was 25.4 µM (inactive), the GI50 (SF-295) was 13.7 µM (inactive) and the GI50 (HT-29) was 16.8 µM (inactive). For the same molecule, the GI50 (HOP-92) was 6.67 µM (inactive), the GI50 (SF-268) was 19.5 µM (inactive) and the GI50 (HCT-15) was 13.9 µM. The GI50 (COLO 205) was 17.1 µM (inactive), the GI50 (LOX IMVI) was 21.6 µM (inactive) and the GI50 (HCT-116) was 6.28 µM (inactive). The GI50 (IGROV-1) was 18.4 µM (inactive), the GI50 (NCI-H460) was 10.9 µM (inactive) and the GI50 (RPMI-8226) was > 19.7 µM (inactive). The GI50 (SR) was > 27.6 µM (inactive), the GI50 (Malme-3M) was 14.2 µM (inactive) and the GI50 (SF-539) was 8.05 µM (inactive). For the same molecule, the GI50 (786-0) was 3.54 µM (inactive), the GI50 (HL-60) was > 40.6 µM (inactive) and the GI50 (OVCAR-3) was 7.74 µM (inactive). The GI50 (NCI-H23) was 8.89 µM (inactive), the GI50 (UACC-257) was 25.1 µM (inactive) and the GI50 (DU-145) was 15.3 µM (inactive). For the same molecule, the GI50 (SN12C) was 18.5 µM (inactive), the GI50 (UACC-62) was 18.1 µM (inactive) and the GI50 (OVCAR-4) was 8.04 µM (inactive). For the same molecule, the GI50 (KM12) was 10.9 µM (inactive), the GI50 (OVCAR-5) was 19.7 µM (inactive) and the GI50 (HCC 2998) was 15.8 µM (inactive). For the same molecule, the GI50 (PC-3) was 6.95 µM (inactive), the GI50 (NCI/ADR-RES) was 13.9 µM (inactive) and the GI50 (MDA-N) was 19.1 µM (inactive). For the same molecule, the GI50 (SK-MEL-2) was 20 µM (inactive), the GI50 (RXF 393) was 7.13 µM (inactive) and the GI50 (K562) was 5.58 µM (inactive). For the same molecule, the GI50 (SNB-19) was 21.4 µM (inactive), the GI50 (UO-31) was 12.8 µM (inactive) and the GI50 (T47D) was 4.28 µM (inactive). The GI50 (SK-OV-3) was 24.6 µM (inactive), the GI50 (EKVX) was > 39.4 µM (inactive) and the GI50 (M14) was 28.1 µM (inactive). The GI50 (BT-549) was 20 µM (inactive), the GI50 (OVCAR-8) was 7.64 µM (inactive) and the GI50 (HOP-62) was 17.9 µM (inactive). The GI50 (U-251) was 17.1 µM (inactive), the GI50 (SK-MEL-28) was 27.7 µM (inactive) and the GI50 (MCF7) was 9.51 µM (inactive). The GI50 (SK-MEL-5) was 22.6 µM (inactive), the GI50 (CCRF-CEM) was 24.3 µM (inactive) and the GI50 (NCI-H226) was 23.3 µM (inactive). The GI50 (SW-620) was 29.6 µM (inactive), the GI50 (MDA-MB-435) was 18.9 µM (inactive) and the GI50 (A549) was 9.71 µM (inactive). The GI50 (MDA-MB-231) was 30.7 µM (inactive), the GI50 (NCI-H522) was 5.66 µM (inactive) and the GI50 (SNB-75) was 38.9 µM (inactive). The GI50 (TK-10) was 4.94 µM (inactive) and the GI50 (MOLT-4) was 20.8 µM (inactive).
For `CC(=O)OCC1OC(O[C@@H]2C[C@H]3C(C)(C)[C@H](OC(C)=O)CC[C@]3(C)[C@H]3CC[C@@]45C[C@H](O)C[C@H](C)[C@@H]4CC=C5[C@@]32C)C(O)C(O)C1O` (stereo partly drawn), the GI50 (ACHN) was 6.05 µM (inactive), the GI50 (A498) was 6.67 µM (inactive) and the GI50 (CAKI-1) was 11.6 µM (inactive). The GI50 (Hs-578T) was 4.6 µM (inactive), the GI50 (SF-295) was 3.66 µM (inactive) and the GI50 (HT-29) was 1.91 µM (inactive). The GI50 (HOP-92) was 4.01 µM (inactive), the GI50 (SF-268) was 4.01 µM (inactive) and the GI50 (HCT-15) was 11.2 µM. The GI50 (COLO 205) was 1.82 µM (inactive), the GI50 (LOX IMVI) was 1.98 µM (inactive) and the GI50 (HCT-116) was 2.08 µM (inactive). The GI50 (IGROV-1) was 2.71 µM (inactive), the GI50 (NCI-H460) was 3.26 µM (inactive) and the GI50 (RPMI-8226) was 2.42 µM (inactive). The GI50 (SR) was 2.07 µM (inactive), the GI50 (Malme-3M) was 6.92 µM (inactive) and the GI50 (SF-539) was 6.59 µM (inactive). For the same molecule, the GI50 (786-0) was 3.83 µM (inactive), the GI50 (HL-60) was 1.84 µM (inactive) and the GI50 (OVCAR-3) was 3.75 µM (inactive). The GI50 (NCI-H23) was 4.56 µM (inactive), the GI50 (UACC-257) was 4.72 µM (inactive) and the GI50 (DU-145) was 8.28 µM (inactive). The GI50 (SN12C) was 4.08 µM (inactive), the GI50 (UACC-62) was 4.12 µM (inactive) and the GI50 (OVCAR-4) was 4.21 µM (inactive). For the same molecule, the GI50 (KM12) was 2.38 µM (inactive), the GI50 (OVCAR-5) was 2.18 µM (inactive) and the GI50 (HCC 2998) was 2.03 µM (inactive). For the same molecule, the GI50 (PC-3) was 3.03 µM (inactive), the GI50 (NCI/ADR-RES) was 16 µM (inactive) and the GI50 (MDA-N) was 3.61 µM (inactive). For the same molecule, the GI50 (SK-MEL-2) was 2.33 µM (inactive), the GI50 (RXF 393) was 2.11 µM (inactive) and the GI50 (K562) was 2.61 µM (inactive). The GI50 (SNB-19) was 4.02 µM (inactive), the GI50 (UO-31) was 13.1 µM (inactive) and the GI50 (T47D) was 3.43 µM (inactive). For the same molecule, the GI50 (SK-OV-3) was 9.12 µM (inactive), the GI50 (EKVX) was 7.69 µM (inactive) and the GI50 (M14) was 4.06 µM (inactive). The GI50 (BT-549) was 5.3 µM (inactive), the GI50 (OVCAR-8) was 4.83 µM (inactive) and the GI50 (HOP-62) was 9.53 µM (inactive). For the same molecule, the GI50 (U-251) was 3.04 µM (inactive), the GI50 (SK-MEL-28) was 7.19 µM (inactive) and the GI50 (MCF7) was 4.04 µM (inactive). The GI50 (SK-MEL-5) was 3.24 µM (inactive), the GI50 (CCRF-CEM) was 2.81 µM (inactive) and the GI50 (NCI-H226) was 4.37 µM (inactive). The GI50 (SW-620) was 4.18 µM (inactive), the GI50 (MDA-MB-435) was 3.27 µM (inactive) and the GI50 (A549) was 4.59 µM (inactive). The GI50 (MDA-MB-231) was 2.39 µM (inactive), the GI50 (NCI-H522) was 2.72 µM (inactive) and the GI50 (SNB-75) was 3.16 µM (inactive). For the same molecule, the GI50 (TK-10) was 8.93 µM (inactive) and the GI50 (MOLT-4) was 2.32 µM (inactive).

Reference: ChEMBL document CHEMBL1201862, “PubChem BioAssay data set” (2004)
